pIC50: −log10 of the molar value.
Assay: Anticancer human tumor 997537-175-T-J1-PDC patient-derived colon adenocarcinoma cell line growth inhibition [POLQ]
Details: 997537-175-T-J1-PDC complex spheroid viability, combination with POLQ inhibitors; for pIC50: curve of first compound; for viability, T/C: stronger effect = lower value
Method: Multicellular complex tumor spheroid response to Polymerase (POL) inhibitors (novobiocin, ART-558, RP6685) in combination with a variety of drugs and investigational agents in selected tumor cell lines
The POL inhibitors (novobiocin, ART-558, and RP6685) were evaluated both individually and in combination with standard of care and investigational anticancer small molecules within a complex spheroid model of solid tumors. . Complex spheroids include a stromal component modeled by human endothelial cells (HUVEC) and fibroblasts modeled by human mesenchymal stem cells (MSCs). The concentration ranges selected for each drug and investigational agent were based upon clinically achievable concentrations if the clinical Cmax of the agent was known.
Compounds. The drugs and investigational agents: novobiocin (NSC847541), ART-558 (NSC835418), RP-6685 (NSC848927), peposertib (NSC802822), ceralasertib (NSC780249), elimusertib (NSC800525), camonsertib (NSC841442), AZD-1390 (NSC803789), olaparib (NSC753686), talazoparib (NSC767125), rucaparib (NSC756644), sotorasib (NSC818433), MRTX-1133 (NSC836407), SN-38 (NSC673596), topotecan (NSC609699), epotoside (NSC141540), doxorubicin (NSC123127), gemcitabine (NSC613327), 5-fluorouracil (NSC19893), paclitaxel (NSC125973), vemurafenib (NSC761431), MSA-2 (NSC828583), SN-011 (NSC837082), adavosertib (NSC754352), prexasertib (NSC758257), carboplatin (NSC241240) and oxaliplatin (NSC266046), were obtained from the National Cancer Institute (NCI) Developmental Therapeutics Program Chemical Repository (21). The FDA-approved anticancer drug set is available from the Developmental Therapeutics Program at https://dtp.cancer.gov/organization/dscb/obtaining/. […] The stock solutions were prepared in dimethyl sulfoxide (DMSO, Sigma-Aldrich, St. Louis, MO, cat. D2650), except for the platinum compounds which were prepared in saline (Quality Biological, Gaithersburg, MD, cat. 114-055-101), at 800-fold the tested concentration and stored at -70 degrees C prior to their use. All drugs and investigational agents were tested over a range starting from a high concentration at or near the clinical Cmax and decreasing in half-log increments. If the clinical Cmax for an agent had not been determined, the highest concentration tested was 10 microM, except for SN-38, which was tested at a high concentration of 1 microM.
Cell Culture. All cells were maintained in an incubator at 37 degrees C and 5% CO2 with 95% humidity. The PDC lines were cultured according to standard operating procedures established by the NCI PDMR (https://pdmr.cancer.gov). Table 3 of the manuscript, lists the cell lines along with the number of the three cell types plated to form the mct-spheroids and media for tumor cell growth. After thawing, all PDC lines, except 997537-175-T-J1-PDC and 415267-285-R-J2-PDC, were cultured in Matrigel-coated flasks prepared with a working solution of 1X Ham's F-12 nutrient mix, without supplementation (Thermo Fisher Scientific, cat. 11765054), 100 U/mL penicillin-streptomycin (Thermo Fisher Scientific, cat. 15140122), and 2.5% Matrigel (Corning Inc., Corning, NY, cat. 354248) for the first three passages. The two PDC lines 997537-175-T-J1-PDC and 415267-285-R-J2-PDC were cultured on uncoated flasks. The 857933-349-R-J2-PDC line was cultured in 6C/Colon 1B media containing advanced DMEM/F-12 (Thermo Fisher Scientific, cat. 12634028), 10 mM HEPES (Thermo Fisher Scientific, cat. 15630080), 1X GlutaMAX supplement (Thermo Fisher Scientific, cat. 35050061), 0.1 mg/mL primocin (InvivoGen, San Diego, CA, cat. ant-pm-2), 10% defined fetal bovine serum, heat inactivated (HyClone Laboratories Inc., Logan, UT, cat. SH30070.03HI), 50% L-WRN conditioned media (ATCC, cat. CRL-3276), 1.25 mM N-Acetyl-L-cysteine (Sigma-Aldrich, cat. A9165), 10 mM nicotinamide (Sigma-Aldrich, cat. N0636), 1X B-27 supplement (Thermo Fisher Scientific, cat. 17504044), 1X N-2 supplement (Thermo Fisher Scientific, cat. […]
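Note: luminescence signal used as a surrogate for viable cells; spheroids exposed to drugs for seven days before readout.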

In the case of `Nc1ccn(C2OC(CO)C(O)C2(F)F)c(=O)n1` (configuration not stated) + Nc1ccc(C#CCN(C(=O)Cc2ncc(C(F)(F)F)cc2C(F)(F)F)c2ccc(F)cc2)nn1, the pIC50 (second compound 0.0316 µM) was < 5.00, the pIC50 (second compound 0.1 µM) was < 5.00 and the pIC50 (second compound 0.316 µM) was < 5.00. The pIC50 (second compound 1 µM) was < 5.00, the pIC50 (second compound 3.16 µM) was < 5.00 and the pIC50 (second compound 10 µM) was < 5.00. The viability, T/C (second compound 0.0316 µM, first compound 0.0316 µM) was 92.5%, the viability, T/C (second compound 0.0316 µM, first compound 0.1 µM) was 100% and the viability, T/C (second compound 0.0316 µM, first compound 0.316 µM) was 87.8%. The viability, T/C (second compound 0.0316 µM, first compound 1 µM) was 89.5%, the viability, T/C (second compound 0.0316 µM, first compound 3.16 µM) was 80.7% and the viability, T/C (second compound 0.0316 µM, first compound 10 µM) was 72.5%. For the same compound, the viability, T/C (second compound 0.1 µM, first compound 0.0316 µM) was 109%, the viability, T/C (second compound 0.1 µM, first compound 0.1 µM) was 108% and the viability, T/C (second compound 0.1 µM, first compound 0.316 µM) was 101%. The viability, T/C (second compound 0.1 µM, first compound 1 µM) was 68.2%, the viability, T/C (second compound 0.1 µM, first compound 3.16 µM) was 67.9% and the viability, T/C (second compound 0.1 µM, first compound 10 µM) was 47.3%. The viability, T/C (second compound 0.316 µM, first compound 0.0316 µM) was 97.9%, the viability, T/C (second compound 0.316 µM, first compound 0.1 µM) was 102% and the viability, T/C (second compound 0.316 µM, first compound 0.316 µM) was 81.8%. For the same compound, the viability, T/C (second compound 0.316 µM, first compound 1 µM) was 92.9%, the viability, T/C (second compound 0.316 µM, first compound 3.16 µM) was 92% and the viability, T/C (second compound 0.316 µM, first compound 10 µM) was 66.2%. It also gave a viability, T/C (second compound 1 µM, first compound 0.0316 µM) of 102%, a viability, T/C (second compound 1 µM, first compound 0.1 µM) of 99.6% and a viability, T/C (second compound 1 µM, first compound 0.316 µM) of 84%. The viability, T/C (second compound 1 µM, first compound 1 µM) was 74.4%, the viability, T/C (second compound 1 µM, first compound 3.16 µM) was 88.7% and the viability, T/C (second compound 1 µM, first compound 10 µM) was 77.5%. The viability, T/C (second compound 3.16 µM, first compound 0.0316 µM) was 100%, the viability, T/C (second compound 3.16 µM, first compound 0.1 µM) was 105% and the viability, T/C (second compound 3.16 µM, first compound 0.316 µM) was 84.7%. For the same compound, the viability, T/C (second compound 3.16 µM, first compound 1 µM) was 83.8%, the viability, T/C (second compound 3.16 µM, first compound 3.16 µM) was 70.8% and the viability, T/C (second compound 3.16 µM, first compound 10 µM) was 84.5%. It also gave a viability, T/C (second compound 10 µM, first compound 0.0316 µM) of 102%, a viability, T/C (second compound 10 µM, first compound 0.1 µM) of 113% and a viability, T/C (second compound 10 µM, first compound 0.316 µM) of 89%. For the same compound, the viability, T/C (second compound 10 µM, first compound 1 µM) was 94.1%, the viability, T/C (second compound 10 µM, first compound 3.16 µM) was 89.7% and the viability, T/C (second compound 10 µM, first compound 10 µM) was 74.2%.
